Experimental data as given in ChEMBL document CHEMBL1909551, “Design, synthesis and in vitro evaluation of bridgehead fluoromethyl analogs of N-{2-[4-(2-methoxyphenyl)piperazin-1-yl]ethyl}-N-(pyridin-2-yl)cyclohexanecarboxamide (WAY-100635) for the 5-HT(1A) receptor” (Eur J Med Chem, 2011).

Legend:
[1] = tested on: Hepatocyte; conditions: human, hepatocytes, 2.5 h
Description: Metabolic stability in human hepatocytes assessed as compound remaining at 50 MBq after 150 mins by radioactivity-based HPLC analysis

[2] = target: T1, Alpha-1A adrenergic receptor (Homo sapiens, UniProt P35348)
T1 sequence (P35348 whole entry): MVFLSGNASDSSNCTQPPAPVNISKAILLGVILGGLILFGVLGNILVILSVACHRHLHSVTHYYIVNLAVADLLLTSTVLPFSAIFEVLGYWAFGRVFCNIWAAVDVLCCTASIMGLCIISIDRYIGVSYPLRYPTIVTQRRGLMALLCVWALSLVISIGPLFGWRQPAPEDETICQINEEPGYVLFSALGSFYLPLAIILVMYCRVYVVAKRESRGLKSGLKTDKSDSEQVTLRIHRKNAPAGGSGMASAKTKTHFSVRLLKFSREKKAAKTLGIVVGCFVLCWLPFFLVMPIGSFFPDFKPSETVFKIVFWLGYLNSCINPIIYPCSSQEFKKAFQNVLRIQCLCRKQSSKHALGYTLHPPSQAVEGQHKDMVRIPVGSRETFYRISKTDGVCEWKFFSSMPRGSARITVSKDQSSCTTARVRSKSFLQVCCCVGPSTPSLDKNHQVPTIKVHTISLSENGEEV
Description: Binding affinity to alpha1A receptor

[3] = target: T2, 5-hydroxytryptamine receptor 1A (Homo sapiens, UniProt P08908); experiment: biochemical
T2 sequence (P08908 whole entry): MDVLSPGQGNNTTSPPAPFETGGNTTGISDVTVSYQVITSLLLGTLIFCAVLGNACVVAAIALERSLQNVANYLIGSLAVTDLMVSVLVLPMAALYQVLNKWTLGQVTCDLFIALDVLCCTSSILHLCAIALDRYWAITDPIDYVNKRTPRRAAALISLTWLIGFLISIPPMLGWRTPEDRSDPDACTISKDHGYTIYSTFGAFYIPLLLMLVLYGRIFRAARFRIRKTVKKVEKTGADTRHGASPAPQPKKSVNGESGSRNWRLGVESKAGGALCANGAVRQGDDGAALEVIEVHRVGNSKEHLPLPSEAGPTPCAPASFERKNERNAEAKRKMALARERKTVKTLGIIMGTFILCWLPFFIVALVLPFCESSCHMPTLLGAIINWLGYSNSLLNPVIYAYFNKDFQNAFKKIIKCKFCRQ
Description: Displacement of [3H]8-OH-DPAT from human 5HT1A receptor expressed in HEK293 EBNA cells after 2 hrs by liquid scintillation counting

[4] = physchem; conditions: buffer, pH 7.4
[5] = target: 5-hydroxytryptamine receptor 7 (Homo sapiens, UniProt P34969); experiment: biochemical
Sequence of 5-hydroxytryptamine receptor 7 (P34969 whole entry): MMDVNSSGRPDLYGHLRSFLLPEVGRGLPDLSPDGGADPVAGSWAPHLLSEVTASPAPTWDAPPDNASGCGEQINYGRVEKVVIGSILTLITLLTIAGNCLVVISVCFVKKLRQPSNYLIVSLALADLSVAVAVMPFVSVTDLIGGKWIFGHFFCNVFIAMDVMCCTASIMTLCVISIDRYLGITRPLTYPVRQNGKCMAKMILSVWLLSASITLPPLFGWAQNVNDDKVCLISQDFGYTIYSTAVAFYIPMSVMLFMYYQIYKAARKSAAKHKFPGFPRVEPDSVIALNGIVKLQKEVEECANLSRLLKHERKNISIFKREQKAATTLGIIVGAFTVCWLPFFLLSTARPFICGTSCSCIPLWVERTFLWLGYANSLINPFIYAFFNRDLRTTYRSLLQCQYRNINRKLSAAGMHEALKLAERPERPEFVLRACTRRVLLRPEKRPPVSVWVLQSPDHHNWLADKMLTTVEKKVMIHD
Description: Displacement of [3H]LSD from 5HT7 receptor expressed in HEK293 EBNA cells by radioligand binding assay

[6] = target: T3, D(4) dopamine receptor (Homo sapiens, UniProt P21917); experiment: biochemical
T3 sequence (P21917 whole entry): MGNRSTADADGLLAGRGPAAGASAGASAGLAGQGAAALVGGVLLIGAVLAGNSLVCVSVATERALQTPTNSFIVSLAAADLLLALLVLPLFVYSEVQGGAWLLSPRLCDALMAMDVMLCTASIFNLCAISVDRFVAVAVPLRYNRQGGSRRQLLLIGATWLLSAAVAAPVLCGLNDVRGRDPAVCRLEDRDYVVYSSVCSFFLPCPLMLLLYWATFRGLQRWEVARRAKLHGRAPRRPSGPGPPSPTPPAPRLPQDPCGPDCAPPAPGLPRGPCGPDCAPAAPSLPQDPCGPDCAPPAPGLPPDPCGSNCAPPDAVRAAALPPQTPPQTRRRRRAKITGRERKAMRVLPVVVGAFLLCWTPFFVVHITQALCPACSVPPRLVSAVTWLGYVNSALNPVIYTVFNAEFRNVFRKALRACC
Description: Displacement of [3H]N-methylspiperone from dopamine D4 receptor expressed in HEK293 EBNA cells by radioligand binding assay

[7] = target: T4, Alpha-1D adrenergic receptor (Homo sapiens, UniProt P25100); experiment: biochemical
T4 sequence (P25100 whole entry): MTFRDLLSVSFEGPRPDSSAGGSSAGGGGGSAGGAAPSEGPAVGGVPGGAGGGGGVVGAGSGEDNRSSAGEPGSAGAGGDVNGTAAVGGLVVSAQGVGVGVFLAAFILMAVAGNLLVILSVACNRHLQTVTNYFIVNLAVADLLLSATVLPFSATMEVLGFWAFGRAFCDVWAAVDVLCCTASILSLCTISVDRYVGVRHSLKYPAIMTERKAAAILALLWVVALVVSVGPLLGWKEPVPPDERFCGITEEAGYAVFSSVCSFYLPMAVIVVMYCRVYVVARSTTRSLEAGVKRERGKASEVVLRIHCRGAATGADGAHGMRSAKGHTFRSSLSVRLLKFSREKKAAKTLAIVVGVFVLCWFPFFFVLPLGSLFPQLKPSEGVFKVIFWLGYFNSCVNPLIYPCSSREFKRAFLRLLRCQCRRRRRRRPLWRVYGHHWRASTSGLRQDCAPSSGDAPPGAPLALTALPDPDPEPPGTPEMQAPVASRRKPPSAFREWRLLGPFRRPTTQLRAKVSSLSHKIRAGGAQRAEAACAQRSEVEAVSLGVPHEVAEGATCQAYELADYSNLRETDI
Description: Displacement of [3H]prazosin from Alpha-1D receptor expressed in HEK293 EBNA cells by radioligand binding assay

[8] = target: T1, Alpha-1A adrenergic receptor; experiment: biochemical
Description: Displacement of [3H]prazosin from alpha1A receptor expressed in HEK293 EBNA cells by radioligand binding assay

[9] = target: 5-hydroxytryptamine receptor 2B (Homo sapiens, UniProt P41595); experiment: biochemical
Sequence of 5-hydroxytryptamine receptor 2B (P41595 whole entry): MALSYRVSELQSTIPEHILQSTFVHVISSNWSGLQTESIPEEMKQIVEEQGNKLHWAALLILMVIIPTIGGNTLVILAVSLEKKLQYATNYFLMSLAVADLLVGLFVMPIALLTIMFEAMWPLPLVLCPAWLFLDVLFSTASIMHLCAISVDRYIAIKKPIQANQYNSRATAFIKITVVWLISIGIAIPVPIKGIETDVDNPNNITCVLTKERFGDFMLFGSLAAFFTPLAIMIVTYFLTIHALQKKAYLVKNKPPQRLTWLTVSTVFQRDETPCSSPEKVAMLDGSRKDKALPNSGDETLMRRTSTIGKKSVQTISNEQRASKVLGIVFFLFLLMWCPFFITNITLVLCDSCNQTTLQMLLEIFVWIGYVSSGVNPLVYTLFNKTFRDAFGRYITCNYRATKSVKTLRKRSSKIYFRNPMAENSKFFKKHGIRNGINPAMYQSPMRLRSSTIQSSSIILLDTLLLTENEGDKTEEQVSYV
Description: Displacement of [3H]LSD from 5HT2B receptor expressed in HEK293 EBNA cells by radioligand binding assay

[10] = target: T5, Alpha-1B adrenergic receptor (Homo sapiens, UniProt P35368); experiment: biochemical
T5 sequence (P35368 whole entry): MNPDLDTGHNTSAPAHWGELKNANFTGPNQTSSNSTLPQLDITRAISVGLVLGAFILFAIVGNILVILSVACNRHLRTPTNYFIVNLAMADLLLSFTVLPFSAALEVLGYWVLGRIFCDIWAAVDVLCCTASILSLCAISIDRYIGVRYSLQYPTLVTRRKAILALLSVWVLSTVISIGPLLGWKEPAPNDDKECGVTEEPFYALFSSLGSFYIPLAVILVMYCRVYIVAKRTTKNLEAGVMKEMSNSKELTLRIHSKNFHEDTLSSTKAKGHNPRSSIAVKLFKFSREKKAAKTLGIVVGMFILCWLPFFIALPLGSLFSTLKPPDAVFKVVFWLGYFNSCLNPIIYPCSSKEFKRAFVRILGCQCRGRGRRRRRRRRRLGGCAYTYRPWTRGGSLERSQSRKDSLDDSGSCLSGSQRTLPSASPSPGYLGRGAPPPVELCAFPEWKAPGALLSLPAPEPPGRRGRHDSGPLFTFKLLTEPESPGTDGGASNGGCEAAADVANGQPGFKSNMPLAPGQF
Description: Displacement of [3H]prazosin from Alpha-1B receptor expressed in HEK293 EBNA cells by radioligand binding assay

[11] = target: T2, 5-hydroxytryptamine receptor 1A; experiment: biochemical; remark: listed apart in the source
Description: Displacement of [3H]8-OH-DPAT from 5HT1A receptor expressed in HEK293 EBNA cells by radioligand binding assay

[12] = target: 5-hydroxytryptamine receptor 1D (Homo sapiens, UniProt P28221); experiment: biochemical
Sequence of 5-hydroxytryptamine receptor 1D (P28221 whole entry): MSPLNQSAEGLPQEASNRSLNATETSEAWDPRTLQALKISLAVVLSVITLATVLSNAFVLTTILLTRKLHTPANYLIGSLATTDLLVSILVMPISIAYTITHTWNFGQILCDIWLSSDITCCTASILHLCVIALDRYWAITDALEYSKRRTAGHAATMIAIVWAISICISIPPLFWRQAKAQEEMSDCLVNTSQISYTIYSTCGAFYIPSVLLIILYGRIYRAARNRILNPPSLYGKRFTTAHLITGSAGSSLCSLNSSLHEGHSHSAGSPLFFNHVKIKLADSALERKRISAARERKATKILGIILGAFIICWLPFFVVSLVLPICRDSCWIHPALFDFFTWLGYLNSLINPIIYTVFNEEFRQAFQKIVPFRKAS
Description: Displacement of [3H]GR127543 from 5HT1D receptor expressed in HEK293 EBNA cells by radioligand binding assay

[13] = tested on: Hepatocyte; conditions: human, hepatocytes, 0.25 h
Description: Metabolic stability in human hepatocytes assessed as compound remaining at 50 MBq after 15 mins by radioactivity-based HPLC analysis

[14] = tested on: Hepatocyte; conditions: human, hepatocytes, 1 h
Description: Metabolic stability in human hepatocytes assessed as compound remaining at 50 MBq after 60 mins by radioactivity-based HPLC analysis

With `COc1ccccc1N1CCN(CCN(C(=O)c2ccc([18F])cc2)c2ccccn2)CC1` the Stability [1] was 8.4% and the Ki [2] was 151 nM.
In the case of `COc1ccccc1N1CCN(CCN(C(=O)C23CC4CC(CC(CF)(C4)C2)C3)c2ccccn2)CC1`, the IC50 [3] is reported as 4.27 nM and the Ki [3] is reported as 1.82 nM.
With `COc1ccccc1N1CCN(CCN(C(=O)C23C4C5C2C2C3C4C52CF)c2ccccn2)CC1` (centres undefined) the logD [4] was 2.94, the Ki [5] was 132 nM and the Ki [6] was 71 nM. The Ki [7] was 27 nM, the IC50 [3] was 1.27 nM and the Ki [3] was 0.54 nM. The Ki [8] was 16 nM, the Ki [9] was 99 nM and the Ki [10] was 176 nM. For the same molecule, the Ki [11] was 0.2 nM and the Ki [12] was 122 nM.
`COc1ccccc1N1CCN(CCN(C(=O)C23CCC(CF)(CC2)CC3)c2ccccn2)CC1` showed a logD [4] of 3.37, a Ki [5] of 77 nM and a Ki [6] of 84 nM. The Ki [7] was 73 nM, the IC50 [3] was 1.53 nM and the Ki [3] was 0.65 nM. For the same molecule, the Ki [8] was 74 nM, the Ki [9] was 79 nM and the Ki [10] was 110 nM. For the same molecule, the Ki [11] was 1.1 nM and the Ki [12] was 361 nM.
`COc1ccccc1N1CCN(CCN(C(=O)C23CCC(CF)(CC2)C3)c2ccccn2)CC1` gave a logD [4] of 2.7, a Ki [5] of 97 nM and a Ki [6] of 92 nM. For the same molecule, the Ki [7] was 19 nM, the IC50 [3] was 2.02 nM and the Ki [3] was 0.86 nM. It also gave a Ki [8] of 36 nM, a Ki [9] of 88 nM and a Ki [10] of 38 nM. It also gave a Ki [11] of 0.9 nM and a Ki [12] of 92 nM.
For `O=C(N(CCN1CCN(c2ccccc2O)CC1)c1ccccn1)C12CC3CC(CC(CF)(C3)C1)C2`, the IC50 [3] was 2.59 nM and the Ki [3] was 1.1 nM.
`O=C(N(CCN1CCN(c2ccccc2O)CC1)c1ccccn1)C12C3C4C1C1C2C3C41CF` (centres undefined) showed an IC50 [3] of 1.35 nM and a Ki [3] of 0.58 nM.
For `O=C(N(CCN1CCN(c2ccccc2O)CC1)c1ccccn1)C12CCC(CF)(CC1)CC2`, the IC50 [3] was 1.76 nM and the Ki [3] was 0.75 nM.
`O=C(N(CCN1CCN(c2ccccc2O)CC1)c1ccccn1)C12CCC(CF)(CC1)C2` showed an IC50 [3] of 1.74 nM and a Ki [3] of 0.74 nM.
In the case of `COc1ccccc1N1CCN(CCN(C(=O)C23C4C5C2C2C3C4C52C[18F])c2ccccn2)CC1` (centres undefined), the Stability [1] is reported as 17.4%, the Stability [13] is reported as 73.2% and the Stability [14] is reported as 30.7%.
With `COc1ccccc1N1CCN(CCN(C(=O)c2ccc([18F])c(C)c2)c2ccccn2)CC1` the Ki [2] was 13.2 nM.
